A short description of one data set: in vitro. To be noted: human.
The conditions of data set [1]: cited from earlier work.

Regarding `CC(C)(O)c1ccccc1CC[C@@H](SCC1(CC(=O)O)CC1)c1cccc(/C=C/c2ccc3ccc(Cl)cc3n2)c1` [montelukast], the viability in the data set “in vitro” fell in the range of 86 to 90%. Also, the “Side effects / tolerability” value in data set [1] (all doses 10 mg/day to 200 mg/day, ref 23 (Altman et al.)) is given as “no significant clinical or laboratory side effects”. Moreover, in data set [1] (high doses (i.e., 200 mg/day)), the Toxicity tolerance result is “toxicity tolerance is high”.

As a reminder, the viability is the share of living cells, or the viability signal relative to a control. Read a low viability as a greater loss of cells.

These data come from article PMC8524809 (Molecular Therapy, 2021).
